Laboratory results: patent publication US7964560B2, “Hepatitis C virus inhibitors” (Bristol-Myers Squibb Company, priority 2008, dated 2011)

Assays:
[1] = target: T1, HCV NS3/4A protease complex, BMS strain (UniProt P27958, species not given/STRAIN_BMS); assay: FRET peptide assay to monitor HCV NS3/4A proteolytic activity (BMS strain); format: biochemical, Hepatitis C virus (genotype 1a); conditions: Table 2, NS3/4A BMS strain, activity range
T1 construct: said of H77 and J4L6S; fused on or other part: three-lysine solubilising tail at the end of NS4A (printed for the H77 and J4L6S constructs; probably the same for BMS)
T1 sequence (P27958 1027-1657, change not shown, one chain of several): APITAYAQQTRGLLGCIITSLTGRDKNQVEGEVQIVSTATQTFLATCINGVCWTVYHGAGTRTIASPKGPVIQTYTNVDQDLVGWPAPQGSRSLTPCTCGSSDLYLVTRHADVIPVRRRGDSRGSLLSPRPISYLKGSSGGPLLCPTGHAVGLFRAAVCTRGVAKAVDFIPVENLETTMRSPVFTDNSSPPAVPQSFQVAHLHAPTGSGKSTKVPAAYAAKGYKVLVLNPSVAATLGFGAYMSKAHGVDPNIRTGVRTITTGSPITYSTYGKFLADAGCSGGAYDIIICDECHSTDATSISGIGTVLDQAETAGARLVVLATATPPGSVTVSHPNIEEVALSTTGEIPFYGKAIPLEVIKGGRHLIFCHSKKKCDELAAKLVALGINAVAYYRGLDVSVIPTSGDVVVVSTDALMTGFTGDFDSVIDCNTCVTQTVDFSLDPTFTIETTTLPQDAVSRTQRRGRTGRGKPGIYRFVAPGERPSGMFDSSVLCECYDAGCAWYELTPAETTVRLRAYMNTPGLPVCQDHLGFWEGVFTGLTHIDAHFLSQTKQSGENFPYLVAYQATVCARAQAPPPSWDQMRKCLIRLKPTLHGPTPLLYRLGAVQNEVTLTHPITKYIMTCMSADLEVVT
Description: HCV […] protease complexes, derived from the BMS strain, H77 strain or J4L6S strain, were generated, as described below. These purified recombinant proteins were generated for use in a homogeneous assay (see below) to provide an indication of how effective compounds of the present disclosure would be in inhibiting HCV NS3 proteolytic activity.
Serum from an HCV-infected patient was obtained from Dr. T. Wright, San Francisco Hospital. An engineered full-length cDNA (compliment deoxyribonucleic acid) template of the HCV genome (BMS strain) was constructed from DNA fragments obtained by reverse transcription-PCR (RT-PCR) of serum RNA (ribonucleic acid) and using primers selected on the basis of homology between other genotype 1a strains. From the determination of the entire genome sequence, a genotype 1a was assigned to the HCV isolate according to the classification of Simmonds et al. (See Simmonds, P. et al., J. Clin. Microbiol., 31(6), 1493-1503 (1993)). […] The infectious clones, H77 (1a genotype) and J4L6S (1b genotype) were obtained from R. Purcell (NIH) and the sequences are published in GENBANK® (AAB67036, see Yanagi, M. et al., Proc. Natl. Acad. Sci. U.S.A., 94(16):8738-8743 (1997); AF054247, see Yanagi, M. et al., Virology, 244(1):161-172 (1998)).
The H77 and J4L6S strains were used for production of recombinant NS3/4A protease complexes. DNA encoding the recombinant HCV NS3/4A protease complex (amino acids 1027 to 1711) for these strains were manipulated as described by P. Gallinari et al. (see Gallinari, P. et al, Biochemistry, 38(17):5620-5632 (1999)). Briefly, a three-lysine solubilizing tail was added at the 3′-end of the NS4A coding region. The cysteine in the P1 position of the NS4A-NS4B cleavage site (amino acid 1711) was changed to a glycine to avoid the proteolytic cleavage of the lysine tag. Furthermore, a cysteine to serine mutation was introduced by PCR at amino acid position 1454 to prevent the autolytic cleavage in the NS3 helicase domain. The variant DNA fragment was cloned in the pET21b bacterial expression vector (Novagen) and the NS3/4A complex was expressed in Escherichia. coli strain BL21 (DE3) (Invitrogen) following the protocol described by P. Gallinari et al. (see Gallinari, P. et al., J. Virol., 72(8):6758-6769 (1998)) with modifications. Briefly, the NS3/4A protease complex expression was induced with 0.5 millimolar (mM) Isopropyl β-D-1-thiogalactopyranoside (IPTG) for 22 hours (h) at 20° C. A typical fermentation (1 Liter (L)) yielded approximately 10 grams (g) of wet cell paste. The cells were resuspended in lysis buffer (10 mL/g) consisting of 25 mM N-(2-hydroxyethyl)piperazine-N′-(2-ethane sulfonic acid) (HEPES), pH 7.5, 20% glycerol, 500 mM sodium chloride (NaCl), 0.5% Triton X-100, 1 microgram/milliliter (“μg/mL”) lysozyme, 5 mM magnesium chloride (MgCl2), 1 μg/ml DnaseI, 5 mM β-mercaptoethanol (βME), protease inhibitor-ethylenediamine tetraacetic acid (EDTA) free (Roche), homogenized and incubated for 20 minutes (min) at 4° C. The homogenate was sonicated and clarified by ultra-centrifugation at 235000 g for 1 hour (h) at 4° C. Imidazole was added to the supernatant to a final concentration of 15 mM and the pH adjusted to 8.0. The crude protein extract was loaded on a Nickel-Nitrilotriacetic acid (Ni-NTA) column pre-equilibrated with buffer B (25 mM HEPES, pH 8.0, 20% glycerol, 500 mM NaCl, 0.5% Triton X-100, 15 mM imidazole, 5 mM βME). The sample was loaded at a flow rate of 1 mL/min. The column was washed with 15 column volumes of buffer C (same as buffer B except with 0.2% Triton X-100). The protein was eluted with 5 column volumes of buffer D (same as buffer C except with 200 mM Imidazole).
NS3/4A protease complex-containing fractions were pooled and loaded on a desalting column Superdex-S200 pre-equilibrated with buffer D (25 mM HEPES, pH 7.5, 20% glycerol, 300 mM NaCl, 0.2% Triton X-100, 10 mM βME). Sample was loaded at a flow rate of 1 mL/min. […]

[2] = test system: HCV replicon in HUH-7 cells; assay: HCV replicon FRET assay; format: cell-based, Hepatitis C virus (strain 1b); conditions: Hepatitis C virus, Huh-7; Table 2, HCV replicon, activity range; replicon assay format not stated; read-out: EC50
Description: An HCV replicon whole cell system was established as described by Lohmann, V. et al., Science, 285(5424):110-113 (1999). This system enabled us to evaluate the effects of our HCV Protease compounds on HCV RNA replication. Briefly, using the HCV strain 1b sequence described in the Lohmann paper (Accession number: AJ238799), an HCV cDNA was synthesized by Operon Technologies, Inc. (Alameda, Calif.), and the full-length replicon was then assembled in plasmid pGem9zf(+) (Promega, Madison, Wis.) using standard molecular biology techniques. The replicon consists of (i) the HCV 5′ UTR fused to the first 12 amino acids of the capsid protein, (ii) the neomycin phosphotransferase gene (neo), (iii) the IRES from encephalomyocarditis virus (EMCV), and (iv) HCV NS3 to NS5B genes and the HCV 3′ UTR. Plasmid DNAs were linearized with ScaI and RNA transcripts were synthesized in vitro using the T7 MegaScript transcription kit (Ambion, Austin, Tex.) according to manufacturer's directions. In vitro transcripts of the cDNA were transfected into the human hepatoma cell line, HUH-7. […] Resulting cell lines were characterized for positive and negative strand RNA production and protein production over time.
The HCV replicon FRET assay was developed to monitor the inhibitory effects of compounds described in the disclosure on HCV viral replication. HUH-7 cells, constitutively expressing the HCV replicon, were grown in Dulbecco's Modified Eagle Media (DMEM) (Gibco-BRL) containing 10% Fetal calf serum (FCS) (Sigma) and 1 mg/ml G418 (Gibco-BRL). Cells were seeded the night before (1.5×10^4 cells/well) in 96-well tissue-culture sterile plates. Compound and no compound controls were prepared in DMEM containing 4% FCS, 1:100 Penicillin/Streptomysin (Gibco-BRL), 1:100 L-glutamine and 5% DMSO in the dilution plate (0.5% DMSO final concentration in the assay). Compound/DMSO mixes were added to the cells and incubated for 4 days at 37° C. After 4 days, cells were first assessed for cytotoxicity using alamar Blue (Trek Diagnostic Systems) for a CC50 reading. The toxicity of compound (CC50) was determined by adding 1/10th volume of alamar Blue to the media incubating the cells. After 4 h, the fluorescence signal from each well was read, with an excitation wavelength at 530 nm and an emission wavelength of 580 nm, using the CYTOFLUOR® Series 4000 (Perspective Biosystems). Plates were then rinsed thoroughly with Phosphate-Buffered Saline (PBS) (3 times 150 μl). The cells were lysed with 25 μl of a lysis assay reagent containing an HCV protease substrate (5× cell Luciferase cell culture lysis reagent (PROMEGA® #E153A) diluted to 1× with distilled water, NaCl added to 150 mM final, the FRET peptide substrate (as described for the enzyme assay above) diluted to 10 μM final from a 2 mM stock in 100% DMSO. The plate was then placed into the CYTOFLUOR® 4000 instrument which had been set to 340 nm excitation/490 nm emission, automatic mode for 21 cycles and the plate read in a kinetic mode. EC50 determinations were carried out as described for the IC50 determinations.

| SMILES | IC50 [1] [nM] | EC50 [2] [nM] |
| --- | --- | --- |
| C=C[C@@H]1C[C@]1(NC(=O)[C@@H]1C[C@@](SC(C)C)(c2ccc(-c3ccccc3)cc2)CN1C(=O)[C@@H](NC(=O)OC(C)(C)C)C(C)(C)C)C(=O)NS(=O)(=O)C1CC1 [Example 9, tert-butyl (S)-1-((2S,4R)-4-(biphenyl-4-yl)-2-((1R,2S)-1-(cyclopropylsulfonylcarbamoyl)-2-vinylcyclopropylcarbamoyl)-4-(isopropylthio)pyrrolidin-1-yl)-3,3-dimethyl-1-oxobutan-2-ylcarbamate] | 1 to 20 | 6 to 100 |
| C=C[C@@H]1C[C@]1(NC(=O)[C@@H]1C[C@](c2ccc(-c3ccccc3)cc2)([S+]([O-])CCCC)CN1C(=O)[C@@H](NC(=O)OC(C)(C)C)C(C)(C)C)C(=O)NS(=O)(=O)C1CC1 (single isomer, unassigned) [Example 2] | 1 to 20 | 6 to 100 |
